Source: EP0528661A2, “HIV protease inhibitors with N-terminal polyether substituents” (MERCK & CO. INC., priority 1991, dated 1993)

Molecular target: T1, HIV protease (Human immunodeficiency virus type 1 group M subtype B, UniProt P12497)
T1 construct: the protease expressed in Eschericia coli; made in house; host or cells: Escherichia coli
Assay: Assay for inhibition of microbial expressed viral protease (peptide substrate cleavage, HPLC quantitation)
Type: biochemical
Details: protease expressed in Eschericia coli; peptide substrate Val-Ser-Gln-Asn-(betanapthyl)Ala-Pro-Ile-Val 0.5 mg/mL; 50 mM Na acetate, pH 5.5, 30°C, 1 hour; read-out: IC₅₀
Experimental: Assay for Inhibition of Microbial Expressed Viral Protease
Inhibition studies of the reaction of the protease expressed in Eschericia coli with a peptide substrate [Val-Ser-Gln-Asn-(betanapthyl)Ala-Pro-Ile-Val, 0.5 mg/mL at the time the reaction is initiated] were in 50 mM Na acetate, pH 5.5, at 30°C for 1 hour. Various concentrations of inhibitor in 1.0 ul DMAO were added to 25 ul of the peptide solution in water. The reaction is initiated by the addition of 15 ul of 0.33 nM protease (0.11 ng) in a solution of 0.133 M Na acetate pH 5.5 and 0.26% bovine serum albumin. The reaction was quenched with 160 ul of 5% phosphoric acid. Products of the reaction were separated by HPLC (VYDAC wide pore 5 cm C-18 reverse phase, acetonitrile gradient, 0.1% phosphoric acid). The extent of inhibition of the reaction was determined from the peak heights of the products.

- IC50: ~5 nM
SMILES: COCCOCCOCCOCCOC(=O)N[C@@H](Cc1ccccc1)[C@@H](O)C[C@@H](Cc1ccccc1)C(=O)N[C@H]1c2ccccc2C[C@H]1O [Compound A, N-(2(R)-hydroxy-1(S)-indanyl)-5(S)-(3,6,9,12-tetraoxatridecyloxycarbonylamino)-4(S)-hydroxy-2(R)-phenylmethyl-6-phenylhexanamide]
